Source: patent US11680082B2, “Conjugates of montelukast and peptides” (ENLITISA (SHANGHAI) PHARMACEUTICAL CO., LTD, priority 2018, dated 2023)
Where a name gives a salt, the structure may show the parent alone. Non-standard residues stand in square brackets, D forms with d. Residues, ends and D or L forms follow the SMILES beside them. No end group written: not given here. *: point of attachment. X2 = CC(C)(O)c1ccccc1CC[C@@H](SCC1(CC(=O)*)CC1)c1cccc(/C=C/c2ccc3ccc(Cl)cc3n2)c1; Dopa = N[C@@H](Cc1ccc(O)c(O)c1)C(=O)O; Hyp = O=C(O)[C@@H]1C[C@@H](O)CN1

How the values were obtained:
CysLTR1 = target: T1, CysLTR1 (Homo sapiens, UniProt Q9Y271); experiment: In vitro CysLTR1 FLIPR antagonist test; type: cell-based; conditions: CYSLTR1/HEK293 cell line, Fluo-4 calcium assay
T1 construct: expressed in transfected cells; host or cells: HEK293
T1 sequence (Q9Y271 1-337): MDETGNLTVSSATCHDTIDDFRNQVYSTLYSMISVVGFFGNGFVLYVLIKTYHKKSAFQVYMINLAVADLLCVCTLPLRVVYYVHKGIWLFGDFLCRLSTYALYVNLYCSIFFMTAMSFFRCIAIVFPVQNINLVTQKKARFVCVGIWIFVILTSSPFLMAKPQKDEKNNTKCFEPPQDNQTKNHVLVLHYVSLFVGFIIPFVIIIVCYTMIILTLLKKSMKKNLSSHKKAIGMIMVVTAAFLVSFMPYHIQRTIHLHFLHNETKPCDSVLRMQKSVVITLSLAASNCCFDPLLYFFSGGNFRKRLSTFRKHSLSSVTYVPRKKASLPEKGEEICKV
Description: 10 different concentrations were tested in duplicate for each compound.
A CYSLTR1/HEK293 cell line was used. The cells were prepared and 20 μL of the cell suspension were added to the 384-well plates (20K/well; poly-D-Lysine protein coating plate, Greiner #781946). The plate was placed at 37° C. in a 5% CO2 incubator overnight.
A probenecid in FLIPR assay buffer was prepared from the relevant starter pack (Cat. no. F10471): A 250 mM stock solution of water-soluble probenecid was prepared by adding 1 mL of Fluo-4 Direct™ calcium assay buffer to 77 mg vials containing probenecid (Component B for Cat. nos. F10471). 10 mL of Fluo-4 Direct™ calcium assay buffer and 200 μL of the 250 mM probenecid stock solution was added to one bottle of Fluo-4 Direct™ calcium reagent (Component A). This 2× Fluo-4 Direct™ calcium reagent loading solution was sufficient for two microplates. The solution was vortexed allowed to sit for 5 minutes (protected from light), to ensure that the reagent was completely dissolved. The reagent was prepared fresh each day
All of the compounds were dissolved and serially diluted in Fluo-4 Direct™ calcium assay buffer (without probenecid). […] Fluorescence was measured using the instrument settings appropriate for excitation at 494 nm and emission at 516 nm.
The data were analysed using Prism (GraphPad Software, USA) and IC50s calculated for each compound.

[1] = test system: bleomycin-induced lung fibrosis; experiment: Idiopathic pulmonary fibrosis (IPF) model in rats (bleomycin); type: in vivo, SD rats; conditions: score, 28 days
Description: 60 adult SD rats (30 male, 30 female) were purchased from Zhejiang Experimental Animal Center, China. Animals were housed at between 21 and 26° C. and at between 40 and 70% relative humidity with free access to food and water.
The rats were anaesthetized and placed on an operating table in the supine position, to expose the trachea. Bleomycin (5 mg/kg, Bleomycin Hydrochloride for Injection, Haizheng Pfizer Pharmaceutical Co., Ltd.) and saline solution were injected into the trachea through the gap between the tracheal cartilage rings.
The sham-operation group was given an equal volume of normal saline instead of bleomycin. The rats were lifted vertically immediately after administration and were rotated to allow bleomycin to evenly disperse. […]
After 28 days of administration, rats were anesthetized by intraperitoneal injection of chloral hydrate and then sacrificed. […] The lung wet weight was weighed, and the lung coefficient was calculated (lung wet weight/rat weight×1000) and are shown in Table 18 below. […]
The fixed lung tissue was embedded in paraffin and sequential 4 μm sections were stained with haematoxylin-eosin (HE) and modified Masson's trichrome. Fibrotic lung injury was assessed morphologically by semiquantitative parameters. All morphological changes were scored according to the severity of damages. […] No lesion was scored as 0. […]

ammonia induced cough = experiment: Antitussive experiment, ammonia induced cough method; type: in vivo, mice; conditions: 10 mg/kg intragastric
Description: 60 mice were randomly divided into 5 groups according to their body weight: CMC-Na negative control group, dextromethorphan hydrobromide positive control group and high, medium and low doses (of Compound A, Example 1) groups. Each group contained 12 mice, 6 males and 6 females.
The test drug was administered via atomization inhalation (0.15 mL/min) for 1 min, once daily for 5 days. The positive control drug was administered once daily by intragastric administration at 10 mg/kg for 5 days.
The mice were placed in an inverted beaker 1, 2, and 4 hours after the last drug administration (either Compound A or the positive control drug). 1 mL of aqueous ammonia (25.0 to 28.0%) was placed on top of a boiling water bath and was evaporated into the beaker. The mice were stimulated by ammonia vapor for a predetermined time of 63.1, 50.1, 39.8, 31.6, 25.1, 20.0, 15.9 or 12.6 seconds. The difference in the logarithm of two adjacent stimulating times was set at 0.1, and being 1.8, 1.7, 1.6, 1.5, 1.4, 1.3, 1.2 and 1.1. The mice were then quickly moved to a bell jar. The number of coughs within 1 minute was detected with a stethoscope. Typical coughs occurring three or more times in one minute are called ‘cough’ and those occurring less than three times in one minute are ‘cough free’.
The ammonia stimulation time for the next mouse was determined according to the principle of the sequential method, i.e. if the first mouse was ‘coughing’, the next mouse was stimulated for a shorter period of time. Conversely, if the first mouse was ‘coughless’, the next mouse was stimulated for a longer period of time.
The EDT50 was defined as the ammonia stimulating time at which half mice developed a “cough” and calculated by the equation: EDT50=lg^−1c/n (c equals the […], r is the number of animals in each stimulating time group, x is the logarithm of stimulation time and n was the number of animals in each group).
Where R1=(EDT50 in treatment group/EDT50 in control group)×100%, R>130% indicates an antitussive effect. R>150% indicates a strong antitussive effect.

[2] = test system: full thickness skin wound; experiment: Acute wound model I; type: in vivo, C57BL/6 mice; conditions: lower dose, Day 4
Description: 6-8 weeks old male C57BL/6 mice were supplied by Changzhou Cvens Experimental Animal Co. Ltd. Prior to any experiments being conducted, mice were housed under standardized conditions (at a constant temperature or 22±2° C., with alternating 12 hour periods of light and darkness), and were fed on a standard mouse diet with water, for about a week.
General anesthesia was induced using intraperitoneal 3% chloral hydrate (Sinopharm Chemical Reagent Co., Ltd.; 1 mL/10 g of body weight). The hair on the back was shaved by a baby hair shaver and depilated with cream. The skin area was wiped and sterilized with 75% alcohol twice.
EMS skin biopsy punch (Electron Microscopy Sciences, P.O. Box 550, 1560 Industry Road, Hatfield, Pa. 19440) with an 18 mm diameter was used to make a round wound on the midline of the back. Full thickness skin was removed, and the depth reached the fascia. The wounds left open without suture.
Different drugs were administrated topically at 50 μL/wound, once daily from Day 0 to Day 7. The model group was given same amount of normal saline.
Compound B was obtained as a powder from GL Biochem, and was prepared as described in Example 2 above). Ala-Lys-Pro-Ser-Tyr-Hyp-Hyp-Thr-DOPA-Lys (Compound 2; SEQ ID No: 4) was obtained as a powder from GL Biochem, and was prepared essentially as described in Example 2 above, but without coupling montelukast at the end. […]

[3] = test system: full thickness skin wound; experiment: Acute wound model II; type: in vivo, C57BL/6 mice; conditions: topical once daily Day 0 to Day 7
Description: A similar experiment with essentially the same protocol to that described in Example 6 above was carried out on 6 to 8 week-old male C57BL/6 mice, EMS skin biopsy punch with a 12 mm diameter was used to make two round wounds on the midline of the back. The two circles were tangential to each other and the skin between the circles was cut along the upper and lower tangents. Scissors were used to trim the wound. The wound was an oval shape. […] The model group was given same amount of normal saline. [table]

[4] = test system: xylene induced ear swelling; conditions: hydrogel 0.5 mg/g, 40 μL on right ear
Description: Essentially the same protocol to that described in Example 5 above was carried out on 15 healthy male BALB/c mice, using Compounds J (see Example 40 above) as test compound. The mice were randomly divided into 3 groups as described in Table 20 below, with 5 mice in each group.
All excipients were obtained from Sinopharm Chemical Reagent Co. Ltd. The gel was made up with water for injection.
Dexamethasone acetate cream (DEX cream; 5 mg of dexamethasone in 10 g of cream; Fuyuan Pharmaceutical Co. Ltd., Anhui, China) was used as a positive control. 40 μL of the various treatments drugs were applied to the right ear of each group.

C[C@H](NC(=O)CC1(CS[C@H](CCc2ccccc2C(C)(C)O)c2cccc(/C=C/c3ccc4ccc(Cl)cc4n3)c2)CC1)C(=O)N[C@@H](CCCCN)C(=O)N1CCC[C@H]1C(=O)N[C@@H](CO)C(=O)N[C@@H](Cc1ccc(O)cc1)C(=O)N1C[C@H](O)C[C@H]1C(=O)N[C@H](C(=O)N[C@@H](Cc1ccc(O)cc1)C(=O)N1C[C@H](O)C[C@H]1C(=O)N[C@@H](CCCCN)C(=O)O)[C@@H](C)O [Compound G, Montelukast-Ala-Lys-Pro-Ser-Tyr-Hyp-Thr-Tyr-Hyp-Lys] (X2-AKPSY[Hyp]TY[Hyp]K-OH)
IC50 (CysLTR1; repeat of Example 38): 99.5 nM

C=C(C)c1ccccc1CC[C@@H](SCC1(CC(=O)O)CC1)c1cccc(/C=C/c2ccc3ccc(Cl)cc3n2)c1 [montelukast styrene]
IC50 (CysLTR1; Example 37): 159 nM

Cc1ccc(=O)n(-c2ccccc2)c1 [pirfenidone]
Masson evaluation Mean ([1]; collagen deposition in pulmonary interstitium): 2.50 | HE evaluation Mean ([1]; sum of degree of fibrosis and inflammation): 5.50

COc1ccc2c(c1)[C@]13CCCC[C@@H]1[C@H](C2)N(C)CC3 [positive, dextromethorphan hydrobromide]
EDT50/s (ammonia induced cough; 1 h after administration): 50.1 s | R1/% (ammonia induced cough; 1 h after administration): 241.7% | EDT50/s (ammonia induced cough; 2 h after administration): 44.7 s | R1/% (ammonia induced cough; 2 h after administration): 207.3% | EDT50/s (ammonia induced cough; 4 h after administration): 41.4 s | R1/% (ammonia induced cough; 4 h after administration): 184.8%

Ala-Lys-Pro-Ser-Tyr-Hyp-Hyp-Thr-DOPA-Lys (AKPSY[Hyp][Hyp]T[Dopa]K; not fully specified; printed as Ala-Lys-Pro-Ser-Tyr-Hyp-Hyp-Thr-DOPA-Lys) [Compound 2]
Hyp content in wound tissue [2]: show effects at early stage

Montelukast Styrene-Ala-Lys-Pro-pSer-Tyr-Hyp-Hyp-Thr-Tyr-Lys [Compound C]
unhealed wound rate [3]: comparable effects on promoting the wound healing

Montelukast-Ala-Lys-Pro-Ser-Tyr-Hyp-Hyp-Thr-Tyr-Hyp-Lys [Compound J]
edema caused by acute inflammation (ear swelling) [4]: very good effect on eliminating the edema caused by acute inflammation
